In article PMC12368479, “Inhibition of the Clathrin Terminal Domain—Amphiphysin Protein–Protein Interaction. Probing the Pitstop 2 Aromatic Moiety” (Chemmedchem, 2025):
Where two headings read alike, the source gives them in different places.

How the values were obtained:
[1] = target: T1, clathrin heavy chain NTD (amino acids 1–364) – amphiphysin 1 B/C domain protein–protein interaction (NTD‐PPI) (Homo sapiens, UniProt Q00610); assay: ELISA-based clathrin inhibitor binding assay (NTD-PPI)
T1 construct: GST‐tagged clathrin heavy chain NTD (amino acids 1–364); made in house
T1 sequence (Q00610 1-364): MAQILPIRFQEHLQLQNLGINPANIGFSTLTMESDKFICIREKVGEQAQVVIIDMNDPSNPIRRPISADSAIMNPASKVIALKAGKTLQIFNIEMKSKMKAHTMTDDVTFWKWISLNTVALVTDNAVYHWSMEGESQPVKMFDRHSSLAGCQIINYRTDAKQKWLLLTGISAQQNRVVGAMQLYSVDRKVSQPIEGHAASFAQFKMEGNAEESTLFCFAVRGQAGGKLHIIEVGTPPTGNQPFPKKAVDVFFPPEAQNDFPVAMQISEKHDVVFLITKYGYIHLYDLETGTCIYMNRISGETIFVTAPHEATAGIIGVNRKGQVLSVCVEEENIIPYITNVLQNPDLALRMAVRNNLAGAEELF
Procedure: The clathrin inhibitor assay was based inhibition of protein–protein interaction (PPI) between clathrin and amphiphysin as described in our previous report.^[ [45], [54] ^] Bacterially expressed recombinant purified His6‐tagged amphiphysin 1 B/C domain (which comprises both the clathrin and the AP‐2 binding sites, amino acids 250‐578^[ [55] ^]) in screening buffer (20 mM HEPES, pH 7.4, 50 mM NaCl, 1 mM DTT, 1 mM PMSF) was added to a 384 well ELISA plate (Corning Maxisorp 3700) and bound to the plastic for 1 h at room temperature. […] Following extensive washes (with 20 mM HEPES, pH 7.4, 50 mM NaCl, 0.05% Tween 20), chemical compounds diluted in DMSO (10 μL) were added and incubated together with bacterially expressed recombinant GST‐tagged clathrin heavy chain NTD (amino acids 1–364) for 1 h at room temperature in screening buffer. After 3 washes, horseradish peroxidase‐coupled anti‐GST antibodies were added in screening buffer and the plate incubated for 40 min at room temperature. Following additional washes, 50 μL TMB (3,3′,5,5′‐tetramethylbenzidine) (Pierce Biotechnology) chromogenic substrate of horseradish peroxidase was added, and the plate was incubated for 10 min before the reaction was terminated by adding 50 μL 1N sulfuric acid to produce a yellow colour. The amount of bound protein was determined by spectrophotometric measurement in a plate reader. Relative binding was calculated as a percentage of DMSO control.

[2] = tested on: transferrin uptake (CME) in U2OS osteosarcoma cells; assay: Clathrin-mediated endocytosis assay: transferrin (Tfn) uptake in U2OS cells; type: cell-based; conditions: for CME activity compared with Pitstop 2: in words; for inhibition at 5 µM: read-out: 2-point CME (% Inhibition) 5 µM
Procedure: Using our previously reported CME assay in U2OS cells, the ability of these compounds to block endocytosis was examined (Table 5 ).^[ [48], [49] ^]
CME was examined by a high‐throughput, quantitative assay for measuring transferrin (Tfn) uptake in U2OS osteosarcoma cells, based on methods described previously.^[ [48] ^]
Compounds were made up fresh from powder stock just prior to commencing the assay, and stock solutions were stored at −20 °C for several months.

[3] = target: T2, full length human Dynamin I (Homo sapiens, UniProt Q05193); assay: Dynamin GTPase activity, Malachite Green phosphate detection assay; type: biochemical
T2 construct: full length human Dynamin I expressed in Sf21 insect cells; made in house; host or cells: Sf21 insect cells
T2 sequence (Q05193 1-864): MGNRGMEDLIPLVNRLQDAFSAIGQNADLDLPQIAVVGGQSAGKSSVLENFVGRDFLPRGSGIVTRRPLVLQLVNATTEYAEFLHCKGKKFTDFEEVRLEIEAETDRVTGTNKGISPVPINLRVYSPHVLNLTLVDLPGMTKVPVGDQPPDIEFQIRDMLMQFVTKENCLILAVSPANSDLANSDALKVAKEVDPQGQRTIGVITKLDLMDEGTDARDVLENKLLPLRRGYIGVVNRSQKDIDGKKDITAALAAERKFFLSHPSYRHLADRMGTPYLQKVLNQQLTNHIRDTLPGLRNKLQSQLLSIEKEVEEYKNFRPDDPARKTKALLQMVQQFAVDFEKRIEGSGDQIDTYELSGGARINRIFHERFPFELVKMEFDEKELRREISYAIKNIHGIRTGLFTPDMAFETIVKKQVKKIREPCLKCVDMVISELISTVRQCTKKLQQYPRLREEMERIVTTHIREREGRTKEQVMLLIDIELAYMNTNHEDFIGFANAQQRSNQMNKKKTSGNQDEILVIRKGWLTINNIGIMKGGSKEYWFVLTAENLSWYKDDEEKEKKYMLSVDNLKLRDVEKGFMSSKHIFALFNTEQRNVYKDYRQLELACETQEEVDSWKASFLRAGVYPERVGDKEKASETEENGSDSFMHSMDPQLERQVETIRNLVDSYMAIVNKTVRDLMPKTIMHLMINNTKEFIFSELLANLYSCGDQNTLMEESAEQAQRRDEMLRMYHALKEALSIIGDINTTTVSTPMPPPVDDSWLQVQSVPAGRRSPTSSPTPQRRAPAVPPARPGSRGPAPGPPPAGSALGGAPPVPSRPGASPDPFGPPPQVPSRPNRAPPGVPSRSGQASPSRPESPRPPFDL
Procedure: Dynamin GTPase activity was determined in vitro using the Malachite Green phosphate detection absorbance‐based assay within a 96‐well plate format as described previously. The enzyme source was full length human Dynamin I expressed in Sf21 insect cells and affinity‐purified on GST‐Amph2‐SH3 (rat Amphiphysin 2 (494–588)).^[ [56] ^]

[4] = Table 5, ELISA, read-out: NTD‐PPI IC50
[5] = Homo sapiens, U2OS, Table 5, inhibition of transferrin‐red uptake in U2OS cells, '–'/NA = not active at 100 μM
[6] = Table 5, dynamin GTPase, n = 1 or n = 2 as footnoted, NA = not active at 100 μM, read-out: Dynamin 1 IC50
[7] = Table 2, library 2, ELISA, average of duplicate measurements (n=2), read-out: NTD‐PPI IC50
[8] = Table 2, library 2, n = 3, triplicate, '–' = not active at 100 μM, read-out: Dyn 1 IC50
[9] = Table S1, preliminary (n=1) unless otherwise noted, NA = not active, includes IC50 > 150 μM, read-out: Dynamin 1 IC50
[10] = Table 4, library 4, ELISA, average of duplicate measurements (n = 2), read-out: NTD‐PPI IC50
[11] = Table 4, library 4, n = 1 or n = 2 as footnoted, '–' = not active at 100 μM, read-out: Dynamin 1 IC50

O=C1N=C(NS(=O)(=O)c2cccc3ccccc23)S/C1=C\c1ccc([N+](=O)[O-])cc1 [compound 13, (Z)‐N‐(5‐(4‐nitrobenzylidene)‐4‐oxo‐4,5‐dihydrothiazol‐2‐yl)naphthalene‐1‐sulfonamide] gave an IC50 ([1]; Table 1, library 1, ELISA, average of duplicate measurements (n=2), read-out: NTD‐PPI IC50) of 5.2 µM, an IC50 [1, 4] of 5.2 µM and an IC50 [2, 5] of roughly 14.6 µM. For the same compound, the “CME activity compared with Pitstop 2” value ([2]; U2OS cells) was “comparable”, the IC50 ([3]; Table 1, library 1, n = 1 unless noted (19: n = 2), '–' = not active at 150 μM, read-out: Dyn 1 IC50) was roughly 56 µM and the IC50 [3, 6] was 55.8 µM.

For COc1cc(/C=C2\SC(NS(=O)(=O)c3cccc4ccccc34)=NC2=O)cc(OC)c1OC [compound 33, (Z)‐N‐(4‐oxo‐5‐(3,4,5‐trimethoxybenzylidene)‐4,5‐dihydrothiazol‐2‐yl)naphthalene‐1‐sulfonamide], the IC50 [1, 7] was 14.1 µM and the IC50 [3, 8] was greater than 100 µM.

For O=C1N=C(NS(=O)(=O)c2cccc3ccccc23)S/C1=C\c1cccc(Cl)c1Cl [compound 34, (Z)‐N‐(5‐(2,3‐dichlorobenzylidene)‐4‐oxo‐4,5‐dihydrothiazol‐2‐yl)naphthalene‐1‐sulfonamide], the IC50 [1, 7] was 26.1 µM and the IC50 [3, 8] was greater than 100 µM.

In the case of O=C1N=C(NS(=O)(=O)c2cccc3ccccc23)S/C1=C\c1ccc(Cl)cc1Cl [compound 35, (Z)‐N‐(5‐(2,4‐dichlorobenzylidene)‐4‐oxo‐4,5‐dihydrothiazol‐2‐yl)naphthalene‐1‐sulfonamide], the IC50 [1, 7] is reported as 1.5 µM and the IC50 [3, 8] is reported as 66.8 µM.

In the case of O=C1N=C(NS(=O)(=O)c2cccc3ccccc23)S/C1=C\c1ccc(Cl)c(Cl)c1 [compound 36, (Z)‐N‐(5‐(3,4‐dichlorobenzylidene)‐4‐oxo‐4,5‐dihydrothiazol‐2‐yl)naphthalene‐1‐sulfonamide], the IC50 [1, 7] is reported as 4.1 µM and the IC50 [3, 8] is reported as 95.1 ± 7.4 µM.

For O=C1N=C(NS(=O)(=O)c2cccc3ccccc23)S/C1=C\C1CCCC1 [compound 41, (Z)‐N‐(5‐(cyclopentylmethylene)‐4‐oxo‐4,5‐dihydrothiazol‐2‐yl)naphthalene‐1‐sulfonamide], the inhibition at 5 µM ([2]; Homo sapiens, U2OS) was 11%, the IC50 ([3]; Table 3, library 3, n = 1 unless otherwise stated (41, 42: n = 2), '–' = not active at 100 μM, read-out: Dynamin 1 IC50) was greater than 100 µM and the IC50 [3, 9] was greater than 150 µM.

For O=C1N=C(NS(=O)(=O)c2cccc3ccccc23)S/C1=C\c1ccsc1 [compound 44, (Z)‐N‐(4‐oxo‐5‐(thiophen‐3‐ylmethylene)‐4,5‐dihydrothiazol‐2‐yl)naphthalene‐1‐sulfonamide], the IC50 [2, 5] was 36.4 ± 13.7 µM.

O=C1N=C(NS(=O)(=O)c2cccc3ccccc23)S/C1=C\c1cc[nH]c1 [compound 45, (Z)‐N‐(5‐((1H‐pyrrol‐3‐yl)methylene)‐4‐oxo‐4,5‐dihydrothiazol‐2‐yl)naphthalene‐1‐sulfonamide] gave an IC50 [1, 10] of 3 µM, an IC50 [1, 4] of 3 µM and an IC50 ([1]; read-out: NTD‐PPI IC50 (ELISA)) of 33 µM. For the same compound, the IC50 [2, 5] was roughly 108 µM and the IC50 ([2]; Homo sapiens, U2OS, U2OS cells) was greater than 50 µM.

For O=C1N=C(NS(=O)(=O)c2cccc3ccccc23)S/C1=C\c1ccoc1 [compound 46, (Z)‐N‐(5‐(furan‐3‐ylmethylene)‐4‐oxo‐4,5‐dihydrothiazol‐2‐yl)naphthalene‐1‐sulfonamide], the IC50 [1, 10] was 2.11 µM, the IC50 [1, 4] was 2.11 µM and the IC50 [2, 5] was 31.5 ± 9.2 µM.

Work on O=C1N=C(NS(=O)(=O)c2cccc3ccccc23)S/C1=C\c1ccc(Cl)o1 [compound 49, (Z)‐N‐(5‐((5‐chlorofuran‐2‐yl)methylene)‐4‐oxo‐4,5‐dihydrothiazol‐2‐yl)naphthalene‐1‐sulfonamide] yielded an IC50 [1, 10] of 3.31 µM, an IC50 [1, 4] of 3.31 µM and an IC50 ([1]; read-out: NTD‐PPI IC50 (ELISA)) of 3.3 µM. It also gave an IC50 [2, 5] of 52.6 ± 9.1 µM and an IC50 ([2]; Homo sapiens, U2OS, U2OS cells) greater than 50 µM.

Compound O=C1N=C(NS(=O)(=O)c2cccc3ccccc23)S/C1=C\c1ccc(Br)o1 [compound 50, (Z)‐N‐(5‐((5‐bromofuran‐2‐yl)methylene)‐4‐oxo‐4,5‐dihydrothiazol‐2‐yl)naphthalene‐1‐sulfonamide] has an IC50 [2, 5] of 42.3 ± 25.7 µM.

O=C1N=C(NS(=O)(=O)c2cccc3ccccc23)S/C1=C\c1ccc(CO)o1 [compound 51, (Z)‐N‐(5‐((5‐(hydroxymethyl)furan‐2‐yl)methylene)‐4‐oxo‐4,5‐dihydrothiazol‐2‐yl)naphthalene‐1‐sulfonamide] was tested, and the “NTD‐PPI activity relative to halogenated furans (49, 50)” value ([1]; ELISA, in words) was “threefold less active”, the IC50 [1, 10] was 6.33 µM and the IC50 [1, 4] was 6.33 µM. The IC50 ([1]; read-out: NTD‐PPI IC50 (ELISA)) was 6.3 µM, the IC50 [2, 5] was roughly 156 µM and the IC50 ([2]; Homo sapiens, U2OS, U2OS cells) was greater than 50 µM.

With CN1CCOc2cc(/C=C3\SC(NS(=O)(=O)c4cccc5ccccc45)=NC3=O)ccc21 [compound 53, (Z)‐N‐(5‐((4‐methyl‐3,4‐dihydro‐2H‐benzo[b][1,4]oxazin‐7‐yl)methylene)‐4‐oxo‐4,5‐dihydrothiazol‐2‐yl)naphthalene‐1‐sulfonamide] the “NTD‐PPI activity relative to 54” value ([1]; ELISA, in words) was “threefold less active”, the IC50 [1, 10] was 3.3 µM and the IC50 ([1]; read-out: NTD‐PPI IC50 (ELISA)) was less than 5 µM. For the same compound, the IC50 [3, 11] was 100.7 ± 1 µM.

O=C1N=C(NS(=O)(=O)c2cccc3ccccc23)S/C1=C\C1=Cc2ccccc2OC1 [compound 55, (Z)‐N‐(5‐((2H‐chromen‐3‐yl)methylene)‐4‐oxo‐4,5‐dihydrothiazol‐2‐yl)naphthalene‐1‐sulfonamide] showed an inhibition at 5 µM ([2]; Homo sapiens, U2OS) of 0%, an inhibition at 50 µM ([2]; Homo sapiens, U2OS, read-out: 2-point CME (% Inhibition) 50 µM) of 40% and an IC50 [3, 11] of 69.3 ± 7.1 µM. For the same compound, the IC50 ([3]; values quoted in running text (section 2.2), read-out: Dynamin IC50) was 69 µM.

In the case of O=C1N=C(NS(=O)(=O)c2cccc3ccccc23)S/C1=C\c1ccc2nsnc2c1 [compound 58, (Z)‐N‐(5‐(benzo[c][1,2,5]thiadiazol‐5‐ylmethylene)‐4‐oxo‐4,5‐dihydrothiazol‐2‐yl)naphthalene‐1‐sulfonamide], the IC50 [2, 5] is reported as 16.8 ± 7.9 µM, the “CME activity compared with Pitstop 2” value ([2]; U2OS cells) is reported as “comparable” and the IC50 [3, 11] is reported as roughly 69.3 µM. For the same compound, the IC50 [3, 6] was roughly 69.3 µM.

Compound O=C1N=C(NS(=O)(=O)c2cccc3ccccc23)S/C1=C\c1c[nH]c2ccc(Cl)cc12 [compound 66, (Z)‐N‐(5‐((5‐chloro‐1H‐indol‐3‐yl)methylene)‐4‐oxo‐4,5‐dihydrothiazol‐2‐yl)naphthalene‐1‐sulfonamide] has an inhibition at 5 µM ([2]; Homo sapiens, U2OS) of 2%, an IC50 [3, 11] greater than 100 µM and an IC50 [3, 9] greater than 150 µM.
